Patent US5770380A (priority 1996, dated 1998)

Target: melittin (Apis mellifera, UniProt P01501)
Assay: biochemical
Assay type: binding, bee

Sequence of melittin (P01501 44-69 limits assumed): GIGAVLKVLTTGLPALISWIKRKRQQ

Compound: CCCCOc1c2cc(C(=O)Nc3cc4cc(c3)C(=O)NCC(=O)N[C@@H](CC(=O)O)C(=O)NCC(=O)N[C@@H](CC(=O)O)C(=O)NC4)cc1Cc1cc(C(=O)Nc3cc4cc(c3)C(=O)NCC(=O)N[C@@H](CC(=O)O)C(=O)NCC(=O)N[C@@H](CC(=O)O)C(=O)NC4)cc(c1OCCCC)Cc1cc(C(=O)Nc3cc4cc(c3)C(=O)NCC(=O)N[C@@H](CC(=O)O)C(=O)NCC(=O)N[C@@H](CC(=O)O)C(=O)NC4)cc(c1OCCCC)Cc1cc(C(=O)Nc3cc4cc(c3)C(=O)NCC(=O)N[C@@H](CC(=O)O)C(=O)NCC(=O)N[C@@H](CC(=O)O)C(=O)NC4)cc(c1OCCCC)C2 [compound 1, Calix[4]arenetetracyclicpeptide1]
- Kd: 1 µM
